According to patent US20250092065A1, “2-(INDAZOL-5-YL)-6-(PIPERIDIN-4-YL)-1,7-NAPHTHYRIDINE DERIVATIVES AND RELATED COMPOUNDS AS MODULATORS FOR SPLICING NUCLEIC ACIDS AND FOR THE TREATMENT OF PROLIFERATIVE DISEASES” (REMIX THERAPEUTICS INC., priority 2022, published 2025):

Assays:
K562 cells = test: Cell Titer Glo 2.0 cell viability (toxicity) assay, K562; settings: 500 cells/well, 72 hours
Protocol: Compounds described herein were screened for toxicity in K562 (human chronic myelogenous leukemia) and SH-SY5Y (human neuroblastoma) cells using a Cell Titer Glo 2.0 assay.
Cells were plated at 500 cells/well (K562 cells) in 45 μL of IMDM supplemented with 10% FBS in a 384-well opaque plate. Wells containing only medium were used as a blank control. Test compounds (e.g., compounds of Formula (I) or (II)) were first serially diluted in DMSO then diluted 1:100 with EIDM+10% FBS. The final concentration of DMSO was 0.1% in each well. The cells were incubated for 72 hours at 37° C. and 5% CO2 before assaying with Cell Titer Glo 2.0 reagent.

Target C = test: RT-qPCR canonical junction panel assay, Target C mRNA; format: cell-based; settings: Table 4, read-out: Target C IC50 (decrease in CJ mRNA levels)
Method in brief: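 IC50 is the concentration giving 50% CJ decrease, from a 4-parameter logistic fit of percent response; response derived from ΔΔCt against housekeeper and DMSO over a fixed ΔCt window, with canonical exon-junction qPCR in compound-treated K562 or A673 cells.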

HTT = test: HiBiT protein abundance assay, HTT (K562 HiBiT knock-in); format: cell-based, human; settings: HiBiT knock-in K562 cells, 24 hours, top dose 10 μM
Method in brief: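 Steps: seed HiBiT knock-in K562 cells; add compound in 10-point 3-fold series from 10 μM final; incubate 24 h, 37 °C; add lytic HiBiT reagent, shake 5 min, wait 10 min; read luminescence. Normalize to parental K562 and DMSO controls, fit 4PL, take IC50.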

| Structure (SMILES) | Effect of Exemplary Compounds on Cell Viability, K562 (K562 cells) | IC50 (Target C) [nM] | IC50 (HTT) [nM] |
| --- | --- | --- | --- |
| Cc1nc2c(C)c(O)c(-c3ccc4nc(N5CC[C@@H](N[C@H]6C[C@H](F)C6)C5)ccc4n3)cc2o1 (single isomer, unassigned) [Compound 352] | B (B represents 100-1000 nM) | < 100 | < 100 |
| Cc1nc2c(F)c(O)c(-c3ccc4nc(N5CC[C@@H](NC6(C)CC6)C5)ccc4n3)cc2o1 (stereo in doubt) [Compound 326, 4-fluoro-2-methyl-6-{6-[(3 S)-3-[(1-methylcyclopropyl)amino]pyrrolidin-1-yl]-1,5-naphthyridin-2-yl}-1,3-benzoxazol-5-ol] | A (A represents <100 nM) | < 100 | < 100 |
| Cc1nc2c(F)c(O)c(-c3ccc4nc(N5CCC(NC6(C)CC6)C5)ccc4n3)cc2o1 (stereo in doubt) [Compound 327, 4-fluoro-2-methyl-6-{6-[(3R)-3-[(1-methylcyclopropyl)amino]pyrrolidin-1-yl]-1,5-naphthyridin-2-yl}-1,3-benzoxazol-5-ol] | B (B represents 100-1000 nM) | < 100 | < 100 |
| Cc1nc2c(C)c(O)c(-c3ccc4nc(N5CC[C@H](NC(C)(C)C)C5)ccc4n3)cc2o1 [Compound 214] | A (A represents <100 nM) | < 100 | < 100 |
| Cc1nc2c(C)c(O)c(-c3ccc4nc(N5CC[C@H](NC6CC6)C5)ccc4n3)cc2o1 [Compound 216] | B (B represents 100-1000 nM) | < 100 | < 100 |
| Cc1nc2c(C)c(O)c(-c3ccc4nc(N5CC[C@@H](NC6CC6)C5)ccc4n3)cc2o1 [Compound 217] | B (B represents 100-1000 nM) | < 100 | < 100 |
| Cn1cc2cc(-c3ccc4nc(N5CCC(NC6(C)CC6)C5)ccc4n3)c(O)cc2n1 (stereo not drawn) [Compound 219] | A (A represents <100 nM) | < 100 | < 100 |
| Cc1nc2cc(O)c(-c3ccc4nc(N5CC[C@@H](NC6CCC6)C5)ccc4n3)cc2o1 [Compound 229] | B (B represents 100-1000 nM) | 100 to 1000 | < 100 |
| Cc1nc2cc(O)c(-c3ccc4nc(N5CC[C@H](NC6CCC6)C5)ccc4n3)cc2o1 [Compound 230] | B (B represents 100-1000 nM) | 100 to 1000 | < 100 |
| Cc1nc2cc(O)c(-c3ccc4nc(N5CCC(NC(C)C)C5)ccc4n3)cc2o1 (stereo not drawn) [Compound 231] | A (A represents <100 nM) | < 100 | < 100 |
| Cc1nc2c(C)c(O)c(-c3ccc4nc(N5CCC(NC6CCC6)C5)ccc4n3)cc2o1 (stereo not drawn) [Compound 235] | B (B represents 100-1000 nM) | 100 to 1000 | < 100 |
| Cc1nc2c(C)c(O)c(-c3ccc4nc(N5CC[C@@H](NC6CCC6)C5)ccc4n3)cc2o1 [Compound 236] | B (B represents 100-1000 nM) | 100 to 1000 | < 100 |
| Cc1nc2c(C)c(O)c(-c3ccc4nc(N5CC[C@H](NC6CCC6)C5)ccc4n3)cc2o1 [Compound 237] | B (B represents 100-1000 nM) | < 100 | < 100 |
| Cc1cc(-c2ccc3nc(N4CCC(NC(C)(C)C)C4)ccc3n2)nc2cn(C)nc12 (stereo not drawn) [Compound 248] | C (C represents 1000-9999 nM) | 1000 to 10000 | 100 to 1000 |
| Cc1c(O)c(-c2ccc3nc(N4CC[C@@H](NC(C)(C)C)C4)ccc3n2)cc2cn(C)nc12 [Compound 249] | A (A represents <100 nM) | < 100 | < 100 |
| Cc1c(O)c(-c2ccc3nc(N4CC[C@H](NC(C)(C)C)C4)ccc3n2)cc2cn(C)nc12 [Compound 250] | B (B represents 100-1000 nM) | < 100 | < 100 |

| Structure (SMILES) | Effect of Exemplary Compounds on Cell Viability, K562 (K562 cells) | IC50 (Target C) [nM] | IC50 (HTT) [nM] |
| --- | --- | --- | --- |
| COc1c(-c2ccc3nc(N4CCC(NC(C)(C)C)C4)ccc3n2)cc2c[nH]nc2c1C (stereo not drawn) [Compound 251] | B (B represents 100-1000 nM) | > 10000 | > 10000 |
| Cc1c(O)c(-c2ccc3nc(N4CCC(NCC5CC5)C4)ccc3n2)cc2cn(C)nc12 (stereo not drawn) [Compound 284, 5-(6-{3-[(cyclopropylmethyl)amino]pyrrolidin-1-yl}-1,5-naphthyridin-2-yl)-2,7-dimethylindazol-6-ol] | B (B represents 100-1000 nM) | 100 to 1000 | < 100 |
| Cc1c(O)c(-c2ccc3nc(N4CCC(NC5CCC5)C4)ccc3n2)cc2cn(C)nc12 (stereo not drawn) [Compound 288, 5-{6-[3-(cyclobutylamino)pyrrolidin-1-yl]-1,5-naphthyridin-2-yl}-2,7-dimethylindazol-6-ol] | B (B represents 100-1000 nM) | 100 to 1000 | < 100 |
| Cc1nc2c(F)c(O)c(-c3ccc4nc(N5CCC(NC6CCC6)C5)ccc4n3)cc2o1 (stereo not drawn) [Compound 293, 6-{6-[3-(cyclobutylamino)pyrrolidin-1-yl]-1,5-naphthyridin-2-yl}-4-fluoro-2-methyl-1,3-benzoxazol-5-ol] | A (A represents <100 nM) | < 100 | < 100 |
| Cn1cc2cc(-c3ccc4nc(N5CCC(NC67CC(C6)C7)C5)ccc4n3)c(O)cc2n1 (stereo not drawn) [Compound 297, 5-[6-(3-{bicyclo[1.1.1]pentan-1-ylamino}pyrrolidin-1-yl)-1,5-naphthyridin-2-yl]-2-methylindazol-6-ol] | D (D represents greater than 10 μM in K562 cells) | > 10000 | 1000 to 10000 |
| Cn1cc2nc(-c3ccc4nc(N5CCC(NC(C)(C)C)C5)ccc4n3)c(O)cc2n1 (stereo not drawn) [Compound 298, 5-{6-[3-(tert-butylamino)pyrrolidin-1-yl]-1,5-naphthyridin-2-yl}-2-methylpyrazolo[4,3-b]pyridin-6-ol] | B (B represents 100-1000 nM) | 100 to 1000 | < 100 |
| Cn1cc2cc(-c3ccc4nc(N5CC[C@H](N[C@H]6C[C@@H](F)C6)C5)ccc4n3)c(O)cc2n1 [Compound 299, 2-methyl-5-{6-[(3S)-3-{[(1s,3s)-3-fluorocyclobutyl]amino}pyrrolidin-1-yl]-1,5-naphthyridin-2-yl}indazol-6-ol] | B (B represents 100-1000 nM) | 1000 to 10000 | < 100 |
| Cc1c(O)c(-c2ccc3nc(N4CCC(NC5COC5)C4)ccc3n2)cc2cn(C)nc12 (stereo not drawn) [Compound 302, 2,7-dimethyl-5-{6-[3-(oxetan-3-ylamino)pyrrolidin-1-yl]-1,5-naphthyridin-2-yl}Indazol-6-ol] | C (C represents 1000-9999 nM) | 1000 to 10000 | 100 to 1000 |
| Cc1nc2c(C)c(O)c(-c3ccc4nc(N5CCC(NC6(C)CC6)C5)ccc4n3)cc2o1 (stereo not drawn) [Compound 309, 2,4-dimethyl-6-(6-{3-[(1-methylcyclopropyl)amino]pyrrolidin-1-yl}-1,5-naphthyridin-2-yl)-1,3-benzoxazol-5-ol] | B (B represents 100-1000 nM) | < 100 | < 100 |
| Cc1nc2c(C)c(O)c(-c3ccc4nc(N5CCC(NC(C)C)C5)ccc4n3)cc2o1 (stereo not drawn) [Compound 312, 6-{6-[3-(isopropylamino)pyrrolidin-1-yl]-1,5-naphthyridin-2-yl}-2,4-dimethyl-1,3-benzoxazol-5-ol] | A (A represents <100 nM) | < 100 | < 100 |
| Cn1cc2cc(-c3ccc4nc(N5CCC(NC6CCC6)C5)ccc4n3)c(O)c(F)c2n1 (stereo not drawn) [Compound 315, 5-{6-[3-(cyclobutylamino)pyrrolidin-1-yl]-1,5-naphthyridin-2-yl}-7-fluoro-2-methylindazol-6-ol] | A (A represents <100 nM) | < 100 | < 100 |
| Cc1c(O)c(-c2ccc3nc(N4CCC(NC(C)C)C4)ccc3n2)cc2cn(C)nc12 (stereo not drawn) [Compound 318, 5-{6-[3-(isopropylamino)pyrrolidin-1-yl]-1,5-naphthyridin-2-yl}-2,7-dimethylindazol-6-ol] | A (A represents <100 nM) | < 100 | < 100 |
| Cc1c(O)c(-c2ccc3nc(N4CC[C@H](NC(C)C)C4)ccc3n2)cc2cn(C)nc12 [Compound 320] | B (B represents 100-1000 nM) | < 100 | < 100 |
| Cc1nc2c(F)c(O)c(-c3ccc4nc(N5CCC(NC6(C)CC6)C5)ccc4n3)cc2o1 (stereo not drawn) [Compound 325, 4-fluoro-2-methyl-6-(6-{3-[(1-methylcyclopropyl)amino]pyrrolidin-1-yl}-1,5-naphthyridin-2-yl)-1,3-benzoxazol-5-ol] | B (B represents 100-1000 nM) | < 100 | < 100 |
| Cc1nc2c(F)c(O)c(-c3ccc4nc(N5CCC(NC(C)C)C5)ccc4n3)cc2o1 (stereo not drawn) [Compound 328, 4-fluoro-6-{6-[3-(isopropylamino)pyrrolidin-1-yl]-1,5-naphthyridin-2-yl}-2-methyl-1,3-benzoxazol-5-ol] | A (A represents <100 nM) | < 100 | < 100 |
